From PMC5442318, “Hundreds of dual-stage antimalarial molecules discovered by a functional gametocyte screen” (Nature Communications, 2017)

Assays:
[1] = test system: P. falciparum stage V female gametocytes; assay: P. falciparum female gametocyte activation assay (Pf FGAA), 24 h or 48 h preincubation, Pfs25 expression readout; type: cell-based, Plasmodium falciparum NF54; details: P. falciparum female gametocytes; mean; read-out: Gametocytes mean Pf FGAA IC50
Method in brief: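 Purified stage V gametocytes from P. falciparum NF54 gametocyte cultures were exposed to compounds for 24 h or 48 h at 37 °C under 3% O2/5% CO2, then activated by temperature drop plus xanthurenic acid. Activated females were stained with Cy3-anti-Pfs25 (0.5 μg ml^−1) for 24 h at 26 °C and counted by high-content imaging; pIC50 by nonlinear regression.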

[2] = test system: P. falciparum stages IV–V gametocytes; assay: Gametocytocidal ATP-depletion assay (gametocyte ATP bioluminescence); type: cell-based, Plasmodium falciparum
Method in brief: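 Purified stage IV–V gametocytes (12,500/well) incubated with compound for 48 h at 37 °C under 3% O2/5% CO2. ATP measured by BacTiter-Glo luminescence as a viability surrogate; hits tested at 2 μM single concentration.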

[3] = test system: P. falciparum asexual blood stages; details: TCAMS asexual blood stage data; ref 1 (Gamo, F. J. et al., Nature 465, 305-310, 2010); read-out: Pf Asexual blood stages XC50; cited from earlier work
HepG2 cells = assay: HepG2 cytotoxicity assay; type: cell-based; details: HepG2 cells; mean
Method in brief: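 Post-incubation CellTiter-Glo luminescence; 30 min RT equilibration, 10 min RT stabilization before reading.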

SMILES | IC50 [1] [nM] | Gametocytes mean ATP inhibition at 2µM [2] [%] | IC50 [3] [nM] | HepG2 cells mean TOX50 (HepG2 cells) [µM]
CCc1c(CCNCCCCCCNC(C)Cc2ccc3c(c2CC)OCO3)ccc(OC)c1OC.Cl (stereo not drawn) [TCMDC-132052] | 480 | 35.74 | 870 | 2.46
Cc1c2ccncc2c(C)c2c1[nH]c1cc(Cc3ccccc3)c(O)cc12 [TCMDC-132053] | 1090 | -3.89 | 150 | 1.23
CCc1c(CCNCCCCCCNC(C)(C)Cc2ccc3c(c2CC)OCO3)ccc(OC)c1OC.Cl [TCMDC-132055] | 1220 | 19.03 | 930 | 4.27
CCc1c(CCNC/C=C/C=C/CNCCc2ccc(OC)c(OC)c2CC)ccc(OC)c1OC.Cl [TCMDC-132061] | 2560 | 13.62 | 970 | 4.68
CCc1c(CCNCCCCCNCCc2ccc(OC)c(OC)c2CC)ccc(OC)c1OC.Cl [TCMDC-132064] | 2050 | 27.40 | 1110 | 4.68
CCc1c(CCNCCCCCCNCCc2ccc([N+](=O)[O-])cc2)ccc(OC)c1OC.Cl [TCMDC-132066] | 1460 | 24.70 | 730 | 4.57
Nc1c(Cl)cc(C(O)CNCCCCCOCCCc2ccc(O)c3ncccc23)cc1Cl.O=C(O)/C=C/C(=O)O (stereo not drawn) [TCMDC-132088] | 2100 | 76.89 | 990 | 7.76
CCc1c(CCNCCCCCCNCCc2ccc3c(c2C)OCO3)ccc2c1OCO2.Cl [TCMDC-132093] | 1020 | 10.41 | 610 | 3.89
CN(C)Cc1cccc2nc(-c3csc(Cc4cc(Cl)ccc4OCc4ccccc4)n3)[nH]c12 [TCMDC-132174] | 2100 | 47.80 | 1120 | 13.04
O=C(O)C(F)(F)F.O=S(=O)(NCCN1CCCC1)c1ccc(-c2cccc(CNC3Cc4ccccc4C3)c2)cc1 [TCMDC-132215] | 2540 | 9.62 | 620 | 6.03
O=C(O)C(F)(F)F.O=S(=O)(NCCN1CCCC1)c1ccc(-c2ccc(CNC3Cc4ccccc4C3)cc2)s1 [TCMDC-132234] | 2270 | 1.19 | 590 | 5.83
O=C(O)C(F)(F)F.O=S(=O)(NCCN1CCCC1)c1cccc(-c2ccc(CNC3Cc4ccccc4C3)cc2)c1 [TCMDC-132241] | 3100 | 3.92 | 660 | 6.46
Cc1cc(-c2ccc(CNC3Cc4ccccc4C3)cc2)ccc1S(=O)(=O)NCCN1CCCC1.O=C(O)C(F)(F)F [TCMDC-132243] | 1830 | 16.13 | 700 | 5.31
COc1ccc(CNC2Cc3ccccc3C2)cc1-c1ccc(S(=O)(=O)NCCN2CCCC2)cc1.O=C(O)C(F)(F)F [TCMDC-132248] | 1990 | 20.60 | 580 | 5.89
COc1ccc(CNC2Cc3ccccc3C2)cc1-c1ccc(OC)c(S(=O)(=O)NCCN2CCCC2)c1.O=C(O)C(F)(F)F [TCMDC-132251] | 2700 | 24.03 | 770 | 7.17
COc1ccc(CNC2CCN(C)CC2)cc1-c1ccc(S(=O)(=O)NCc2ccccc2)s1.O=C(O)C(F)(F)F [TCMDC-132253] | 1750 | -2.80 | 230 | 5.50
COc1ccc(CNC2Cc3ccccc3C2)cc1-c1ccc(S(=O)(=O)NCCN2CCCC2)s1.O=C(O)C(F)(F)F [TCMDC-132258] | 1390 | 59.91 | 190 | 5.31
COc1ccc(CNC2Cc3ccccc3C2)cc1-c1ccc(S(=O)(=O)NCCN2CCCC2)c(F)c1.O=C(O)C(F)(F)F [TCMDC-132266] | 1950 | 7.12 | 720 | 6.03

SMILES | IC50 [1] [nM] | Gametocytes mean ATP inhibition at 2µM [2] [%] | IC50 [3] [nM] | HepG2 cells mean TOX50 (HepG2 cells) [µM]
Cl.N[C@@H](CCNC1CCN(c2cccc(C(F)(F)F)c2)CC1)Cc1ccc(F)c(F)c1 [TCMDC-132301] | 440 | 70.53 | 1280 | 3.76
Cc1ccc(Cn2nc(N3CCNCC3)ccc2=O)cc1NC(=O)Nc1ccc(-c2ccccc2)cc1.O=C(O)C(F)(F)F [TCMDC-132580] | 1940 | 1.45 | 840 | 7.42
O=S(=O)(Nc1cccc(F)c1CNCc1ccccn1)c1ccc(Cl)c(Cl)c1 [TCMDC-132598] | 1360 | 51.32 | 890 | 20.42
NCc1ccc(CNCc2cccc(-c3ccc(-c4nc5cc(C(F)(F)F)ccc5[nH]4)cc3)c2)cc1.O=C(O)C(F)(F)F [TCMDC-132811] | 830 | -6.09 | 260 | 14.65
NCc1ccc(CNCc2ccc(-c3ccc(-c4nc5cc(C(F)(F)F)ccc5[nH]4)s3)cc2)cc1.O=C(O)C(F)(F)F [TCMDC-132814] | 1020 | 6.11 | 160 | 8.32
CNCCNCc1ccc(-c2ccc(-c3nc4cc(C(F)(F)F)ccc4[nH]3)s2)cc1.O=C(O)C(F)(F)F [TCMDC-132838] | 1280 | -8.87 | 600 | 6.10
FC(F)(F)c1ccc2[nH]c(-c3ccc(-c4ccc(CNCCN5CCNCC5)cc4)s3)nc2c1.O=C(O)C(F)(F)F [TCMDC-132862] | 3000 | -0.18 | 910 | 12.88
FC(F)(F)c1ccc2[nH]c(-c3ccc(-c4cccc(CNCCN5CCNCC5)c4)cc3)nc2c1.O=C(O)C(F)(F)F [TCMDC-132864] | 1710 | 10.30 | 1030 | 12.31
FC(F)(F)c1ccc2[nH]c(-c3cccc(-c4cccc(CNCCN5CCNCC5)c4)c3)nc2c1.O=C(O)C(F)(F)F [TCMDC-132871] | 1220 | 0.88 | 940 | 6.61
FC(F)(F)c1ccc2[nH]c(-c3cccc(-c4ccc(CNCCN5CCNCC5)cc4)c3)nc2c1.O=C(O)C(F)(F)F [TCMDC-132872] | 1790 | -15.41 | 860 | 8.81
CCCN(CC1CC1)c1ncc(-c2cccc(CNCCC3CCCN3C)c2)cn1 (stereo not drawn) [TCMDC-133142] | 2180 | 6.70 | 750 | 3.09
CN(CCc1ccccc1)c1ncc(-c2cccc(CNCCC3CCCN3C)c2)cn1 (stereo not drawn) [TCMDC-133143] | 1360 | 11.85 | 870 | 2.88
CN1CCCC1CCNCc1cccc(-c2cnc(N3CCCC(C)(C)C3)nc2)c1 (stereo not drawn) [TCMDC-133144] | 1670 | 3.15 | 930 | 4.63
O=C(Nc1cccc(-c2cccc(-c3nc4cc(C(F)(F)F)ccc4[nH]3)c2)c1)Nc1ccc(F)c(F)c1F [TCMDC-133229] | 1400 | -42.33 | 120 | 3.43
COc1cc(-c2cc(-c3ccc(S(C)(=O)=O)cc3)cnc2N)ccc1O [TCMDC-133343] | 390 | 57.72 | 100 | 41.69
COc1ccccc1C1CCN(C2CCC(NC(=O)c3ccc4[nH]c(-c5ccc(C)cc5)nc4c3)CC2)CC1 (stereo not drawn) [TCMDC-133556] | 2490 | 22.02 | 310 | 3.99
CN1CCC(N2CCN(Cc3cccc(-c4ccc(-c5nc6cc(C(F)(F)F)ccc6[nH]5)cc4)c3)CC2)CC1.O=C(O)C(F)(F)F [TCMDC-133842] | 1090 | 4.02 | 140 | 2.44
CN1CCCC(CN2CCN(Cc3cccc(-c4ccc(-c5nc6cc(C(F)(F)F)ccc6[nH]5)cc4)c3)CC2)C1.O=C(O)C(F)(F)F (stereo not drawn) [TCMDC-133882] | 1300 | 1.53 | 150 | 4.07
